Data set [1] addresses T1, farnesylated wild type PEX19 CTD (Homo sapiens, UniProt P40855).
T1 construct: we studied the human PEX19 CTD (residues 161–299) that includes the native C-terminus; hexahistidine (TEV-cleavable) (cleaved yes); made in house; host or cells: Escherichia coli BL21 (DE3); farnesylated in vitro with recombinant S. cerevisiae farnesyl transferase
T1 sequence (P40855 161-299): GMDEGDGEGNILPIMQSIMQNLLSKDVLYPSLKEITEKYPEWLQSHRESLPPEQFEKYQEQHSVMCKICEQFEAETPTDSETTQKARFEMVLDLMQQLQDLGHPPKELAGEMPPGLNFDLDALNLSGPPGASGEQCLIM
Nature of the data set: Fluorescence polarization, ALDP peptide binding to farnesylated wild type PEX19 CTD. The method, then: (§1) ALDP peptide (62-AAKAGMNRVFLQRLL-76) fused N-terminally with fluorescein isothiocyanate (FITC), was purchased from Peptide Specialty Laboratories GmbH. The lyophilized powder was dissolved in 1 ml water resulting in a 5 mM stock solution. Overnight dialysis against buffer containing 50 mM Tris pH 8.0, 50 mM NaCl, removed trifluoroacetate counterions. For the determination of each binding curve a 12 point titration was performed with constant concentration of 20 nM labelled peptide with increasing concentrations of PEX19 CTD variants. Starting concentration of PEX19 CTD was 1 mM with 12 serial dilutions reaching 0.5 μM. Reaction mixtures were then transferred into 96-well Optiplate and measured as triplicates in PerkinElmer EnVision plate reader. […]
(§2) Supplementary Figure 6: ALDP af finity measurement for PEX19 CTD proteins using a fluorescence polarization assay . Polarization plots as a function of protein concentration for the direct titration of PEX19 non-farnesylated (black) and farnesylated (red) forms (wild type and residue spedific mutants) into fluorescein-labeled ALDP peptide. […]
standard deviations for triplicate measurements (n = 3).
(§3) (also on this page, place not known: assay. affinity Fluorescence polarization (mP) wt wtfarn Fluorescence polarization (mP) M179Rfarn 0.00 1.00 Fluorescence polarization (mP) M255Rfarn 0.00 1.00 Fluorescence polarization (mP) I195Kfarn Kd Kd /uni03BCM)

In data set [2] the test system is PEX19 CTD M255R. Description: Fluorescence polarization, ALDP peptide binding to PEX19 CTD M255R. On the set-up: species or system human. The note with it: with or without farnesylation, FITC-labelled ALDP peptide 20 nM, triplicate (n = 3). The method, then:
as §1, §2, §3

Data set [3] deals with PEX19 CTD I195K. Description: Fluorescence polarization, ALDP peptide binding to PEX19 CTD I195K. On the set-up: species or system human. Conditions: with or without farnesylation, FITC-labelled ALDP peptide 20 nM, triplicate (n = 3). Here is the method:
as §1, §2, §3

The subject of data set [4] is PEX19 CTD M179R. Description: Fluorescence polarization, ALDP peptide binding to PEX19 CTD M179R. On the set-up: species or system human. Conditions: with or without farnesylation, FITC-labelled ALDP peptide 20 nM, triplicate (n = 3). The method, then:
as §1, §2, §3

In data set [5] the target is T2, non-farnesylated PEX19 CTD (Homo sapiens, UniProt P40855).
T2 construct: we studied the human PEX19 CTD (residues 161–299) that includes the native C-terminus; hexahistidine (TEV-cleavable) (cleaved yes); made in house; host or cells: Escherichia coli BL21 (DE3)
T2 sequence (P40855 161-299): T1 sequence (P40855 161-299)
Description: NMR titration of non-farnesylated PEX19 CTD with PMP peptides. The class given is binding. The note with it: 100 μM PEX19 CTD; peptide molar ratio up to 10:1; 1H,15N HSQC; 298 K. Here is the method:
Figure 4 NMR analysis of PMP binding to non-farnesylated and farnesylated PEX19 CTD. (a) Comparison of ^1H,^15N HSQC spectra of 100 μM non-farnesylated CTD free (black) and in the presence of 10-fold excess of the ALDP-derived peptide (cyan). (b) Comparison of ^1H,^15N HSQC spectra of 100 μM farnesylated PEX19 CTD free (black) and in the presence of 5 (green) and 10 (red) molar ratio of the ALDP peptide. The grey dashed line indicates the position of additional baseline correction applied to remove noise from DMF signals in the peptide stock solution. (c) Chemical shift perturbation of Met/Ile methyl groups seen in ^1H,^13C HSQC experiments upon increasing concentration of ALDP peptide. […] (d) Quantification of chemical shift perturbation (CSP) of amide and methyl groups with respect to the PEX19 amino acid sequence. […] Grey colour refers to residues, which could not be analysed.
NMR spectra were acquired at 298 K on a Bruker Avance III 600-MHz spectrometer with a TCI cryo-probe head, an Avance III 750-MHz spectrometer with a TXI probe head, or an Avance 900 instrument with a TXI cryo-probe head. Spectra were processed using NMRPipe[31] and analysed with Sparky[32]. […] Backbone and side chain assignments were obtained from HNCA, HNCACB, CBCA(CO)NH, H(C)CH-TOCSY and (H)CCH-TOCSY spectra. ^13C- and ^15N- edited NOESY spectra with a mixing time of 70 ms were recorded to derive distance restraints. […]

Data set [6] is described as follows: NMR 13C secondary chemical shifts (peptide conformation). The class given is physicochemical. Conditions: C-terminally extended version of the ALDP peptide with additional tryptophan (residue 68 to 82). The source says:
Phe71 aromatic ring protons
Residue number Leucine residue
Supplementary Figure 8: Intermolecular NOEs between PEX19 CTD and the ALDP peptide, and secondary structure of the latter. (a) 1H,1H plane of a 3D ω1-filtered, ω2-edited 13C-NOESY-HSQC experiment of farnesylated PEX19 CTD free (black) and bound to the ALDP peptide (red). Methyl and methylene protons of the unlabeled farnesyl group of the PEX19 CTD show NOEs with protons of the isotope-labeled farnesylated PEX19 CTD (black circles). In the presence of also unlabeled ALDP peptide additional intermolecular methyl-methyl and aliphatic-aromatic NOEs are observed (red circles and below). (b) NMR 13C secondary chemical shifts of a C-terminally extended […]
tion. (c) Due to signal overlap, 5 out of 7 spin systems for leucine residues were assigned. Nevertheless, also the leucines residues adopt a helical conformation.
(also on this page, place not known: (Leu75)(Leu76) (Leu81)(Leu82) 5 LeuC Cα- Cβ [p.p.m.] Cα- Cβ [p.p.m.] c ω2 ω1 1H (p.p.m.) ω1 1H (p.p.m.) QDPro273/Pro274 { - - { 5)

In data set [7] the target is T3, farnesylated PEX19 CTD (Homo sapiens, UniProt P40855).
T3 construct: we studied the human PEX19 CTD (residues 161–299) that includes the native C-terminus; hexahistidine (TEV-cleavable) (cleaved yes); made in house; host or cells: Escherichia coli BL21 (DE3); farnesylated in vitro with recombinant S. cerevisiae farnesyl transferase
T3 sequence (P40855 161-299): T1 sequence (P40855 161-299)
Nature of the data set: NMR titration of farnesylated PEX19 CTD with PMP peptides. The class given is binding. The note with it: 1H,15N HSQC; 298 K; ALDP at 5 and 10 molar ratio with 100 μM PEX19 CTD; PEX13 at 1:1.5 and 1:0.5 with 50 μM.

“AAKAGMNRVFLQRLL [ALDP peptide, peptide, residues 62–76 of human ALDP]”: the “affinity (in words)” value in data set [1] (farnesylated PEX19 CTD) is “micromolar affinity”. For the same sequence, the “increase in affinity upon farnesylation of wild type PEX19 CTD” value in data set [1] (ratio farnesylated vs non-farnesylated wild type PEX19 CTD) is recorded as “seven”. Also, the “binding to PEX19 CTD M255R” value in data set [2] was “impaired binding”. Besides, the “binding to PEX19 CTD I195K” value in data set [3] was “impaired binding”. Besides, in data set [4], the “binding to PEX19 CTD M179R” value is recorded as “impaired binding”. Also, the “NMR spectral changes of non-farnesylated PEX19 CTD” value in data set [5] is “no significant spectral changes”. Further, the “helical conformation of free peptide” value in data set [6] is “preformed helical conformation”. Also, in data set [7], the “NMR chemical shift perturbations / line broadening of farnesylated PEX19 CTD” value was “distinct chemical shift perturbations”.

Values taken from article PMC5353646, “Allosteric modulation of peroxisomal membrane protein recognition by farnesylation of the peroxisomal import receptor PEX19” (Nature Communications, 2017).
